The target of data set [1] is T1, SDF-1 (Homo sapiens, UniProt P48061). In words: Inhibition of SDF-1-induced chemotaxis, U937 cells. The class given is cell-based. Conditions: 3 nM human SDF-1. Here is the method:
(§1) The human T cell leukemia cell line Jurkat, the human leukemic monocyte lymphoma cell line U937, the human pre-B cell leukemia cell line BV-173 and human pre-B ALL cell line Nalm-6 express CXCR4. […] All cells used were obtained from the DSMZ (Braunschweig). All cell lines were cultivated at 37° C. and 5% CO2 in RPMI 1640 medium with Glutamax (Invitrogen, Karlsruhe, Germany) which contains 10% fetal bovine serum, 100 units/ml penicillin and 100 μg/ml streptomycin (Invitrogen, Karlsruhe, Germany). One day before the experiment, cells were seeded in a new T175 flask with a density of 0.3×10^6/ml (Jurkat, U937, BV-173) or 0.75×10^6/ml (Nalm-6), respectively.
(§2) For the experiment, cells were centrifuged (5 min at 300 g), resuspended, counted and washed once with 15 ml HBH (Hanks balanced salt solution containing 1 mg/ml bovine serum albumin and 20 mM HEPES; Invitrogen, Karlsruhe, Germany). Then the cells were resuspended at 1.33×10^6/ml (Jurkat, U937, BV-173) or 2.67×10^6/ml (Nalm-6), respectively. […]
(§3) For evaluation, fluorescence values were corrected for background fluorescence (no cells in well). Then the difference between experimental conditions with and without SDF-1 was calculated. The value for the sample without Spiegelmer (SDF-1 only) was set 100% and the values for the samples with Spiegelmer were calculated as percent of this. […]

Data set [2] has as its target T1, SDF-1. Nature of the data set: Inhibition of SDF-1-induced chemotaxis, BV-173 cells. The class given is cell-based. To be noted: 3 nM human SDF-1. Here is the method:
as §1, §2, §3

In data set [3] the test system is Jurkat cells. In words: Proliferation of Jurkat cells in coculture with stromal MS-5 cells. To be noted: 40 hours. In kind it is cell-based, human. As to the method:
Aim of the experiment was to show whether SDF-1 binding Spiegelmer NOX-A12 has an impact on proliferation of leukemia cells in coculture with bone marrow (abbr. BM) stromal cells. Murine stromal MS-5 cells secreting SDF-1 were incubated with SDF-1 binding Spiegelmer NOX-A12 or the non-functional Spiegelmer revNOX-A12. The leukemic T-cell line Jurkat was added to the confluent stromal cell layer and incubated for 40 hours at 37° C. and 5% CO2. Cell numbers were quantified by Flow Cytometry using the Guava EasyCyte and ViaCount Reagent.
The murine stromal cell line MS-5 (ACC 441) were purchased from the DSMZ and were cultured in MEM alpha GlutaMAX (Invitrogen) with 10% FBS and penicillin-streptomycin. For proliferation coculture experiments stromal MS-5 cells were seeded the day before onto 24-well plates (the inner eight wells) at a concentration of 8×10^4/mL/well in MEM alpha GlutaMAX medium (+10% FBS) and incubated at 37° C. in 5% CO2. The confluent stromal cell layer was washed and 0.5 mL RPMI medium 1640 (+1% FBS) was added to the wells. […] 2×10^5 Jurkat cells (logarithmic growth phase; washed once) in RPMI medium 1640 (+1% FBS) were added to the confluent stromal cell layer and incubated for […] at 37° C. with 5% CO2. […] Cell viability and cell number were determined by Flow Cytometry using the Guava EasyCyte 6HT/2L.

The test system of data set [4] is SDF-1 dose-dependent adhesion of Jurkat cells to fibronectin. In words: Adhesion of Jurkat cells to fibronectin. In kind it is cell-based, human. Conditions: SDF-1 plus increasing concentrations of Spiegelmer. As to the method: The T cell leukemia Jurkat (ACC 282) were purchased from the DSMZ were maintained in RPMI medium 1640 GlutaMAX (Invitrogen) supplemented with 10% FBS (Biochrom) and penicillin-streptomycin. For the adhesion experiments 96-well culture plates were incubated with 10 μg/mL human fibronectin (R&D systems) in PBS for 2 hours at 37° C. […] The wells were then washed with RPMI medium. Jurkat cells from logarithmic growth phase were washed with RPMI medium (+0.1% BSA) and incubated with various concentrations of human SDF-1 (R&D systems) and NOX-A12 for 15 minutes at 37° C. NOX-A12 and SDF-1 were preincubated for 30 minutes. lx 105 stimulated Jurkat cells were seeded to the Fibronectin-coated 96-well plates and incubated for 30 minutes. The plates were then washed five times with RPMI medium. Attached cells were quantified by using Cell Titer Glo Reagent (Promega). Therefor, 50 μL RPMI medium was added to each well, followed by 50 μL of Cell Titer Glo Reagent. The plates were mixed for two minutes, followed by incubation at room temperature for 10 minutes. Cell number was quantified by relative luminescence signal.

{PEG40k} = 40 kDa polyethylene glycol

T1 sequence (P48061 22-89): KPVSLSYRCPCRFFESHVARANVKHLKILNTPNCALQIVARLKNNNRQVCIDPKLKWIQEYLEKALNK

On to “5′-40 kDa-PEG-GCGUGGUGUGAUCUAGAUGUAUUGGCUGAUCCUAGUCAGGUACGC (5' {PEG40k}, sugars by position and backbone not given here) [NOX-A12]”, for which the “inhibition of SDF-1 induced chemotaxis” value in data set [1] and in data set [2] was “Inhibition” throughout. For the same substance, the “effect on Jurkat cell number” value in data set [3] (1 nM) is “no effect”. The “reduction of Jurkat cell number” value in data set [3] (10 or 100 nM) is “up to 20%”. In addition, in data set [4], the “reversal of SDF-1 effect on adhesion of Jurkat cells to fibronectin” value is “reverse this effect”.

These data come from patent US9387221B2, “SDF-1 binding nucleic acids and the use thereof in cancer treatment” (NOXXON Pharma AG, priority 2010, dated 2016).
